Laboratory results: PubChem BioAssay (NCI)
In brackets after ≈: the same amount, converted by molar mass.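 Following 48 hours of exposure in 96-well plates, responses at five concentrations were used to interpolate endpoints linearly. GI50 is the concentration that inhibits growth by half. The concentration for full growth arrest is given as TGI.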

What was measured:
Experiment in all cases: NCI-60 cell line screen, 48 h
OVCAR-5 ovarian = tested on: OVCAR-5 ovarian
SW-620 colon = tested on: SW-620 colon
LOX IMVI melanoma = tested on: LOX IMVI melanoma
OVCAR-8 ovarian = tested on: OVCAR-8 ovarian
CCRF-CEM leukemia = tested on: CCRF-CEM leukemia
TK-10 renal = tested on: TK-10 renal
HOP-92 NSCLC = tested on: HOP-92 NSCLC
RXF 393 renal = tested on: RXF 393 renal
KM12 colon = tested on: KM12 colon
SF-295 CNS = tested on: SF-295 CNS
SNB-75 CNS = tested on: SNB-75 CNS
U251 CNS = tested on: U251 CNS
M14 melanoma = tested on: M14 melanoma
NCI-H226 lung = tested on: NCI-H226 lung

Compound	TGI (OVCAR-5 ovarian)	TGI (SW-620 colon)	TGI (LOX IMVI melanoma)	TGI (OVCAR-8 ovarian)	TGI (CCRF-CEM leukemia)	TGI (TK-10 renal)	TGI (HOP-92 NSCLC)	TGI (RXF 393 renal)	TGI (KM12 colon)	TGI (SF-295 CNS)	TGI (SNB-75 CNS)	TGI (U251 CNS)	TGI (M14 melanoma)	TGI (NCI-H226 lung)	GI50 (OVCAR-5 ovarian)	GI50 (TK-10 renal)	GI50 (HOP-92 NSCLC)	GI50 (KM12 colon)	GI50 (SF-295 CNS)
c1ccc(C2=NN2c2ccccc2)cc1	> 100 µM	> 100 µM	> 100 µM	> 100 µM	> 100 µM	> 100 µM	> 100 µM	> 100 µM	> 100 µM	> 100 µM	> 100 µM	> 100 µM	> 100 µM	> 100 µM	–	–	–	–	–
O=C=C=P(c1ccccc1)(c1ccccc1)c1ccccc1	92.8 µM	> 100 µM	> 100 µM	> 100 µM	> 100 µM	–	85.1 µM	> 100 µM	> 100 µM	> 100 µM	83.6 µM	> 100 µM	> 100 µM	> 100 µM	–	–	–	–	–
O=Cc1cn(CCCCCCCCn2cc(C=O)c3ccccc32)c2ccccc12	> 10 µM	> 10 µM	> 10 µM	> 10 µM	> 10 µM	> 10 µM	–	> 10 µM	> 10 µM	> 10 µM	> 10 µM	> 10 µM	> 10 µM	> 10 µM	–	–	–	–	–
ICC1CCCO1 (stereo not given)	> 100 µM	> 100 µM	> 100 µM	> 100 µM	> 100 µM	> 100 µM	> 100 µM	> 100 µM	> 100 µM	> 100 µM	> 100 µM	> 100 µM	> 100 µM	> 100 µM	–	–	–	–	–
CCOP(=O)(C/C=C/Cn1ncc(=O)[nH]c1=O)OCC	> 100 µM	> 100 µM	> 100 µM	> 100 µM	> 100 µM	> 100 µM	> 100 µM	> 100 µM	> 100 µM	–	> 100 µM	> 100 µM	> 100 µM	> 100 µM	–	–	–	–	–
Cc1nc2nc(C)n(CCN3CCOCC3)c(=O)c2c(-c2cccc([N+](=O)[O-])c2)c1C(=O)CCCCCCCCCCN1CCC(c2ccccc2)(c2ccccc2)CC1	4.03 µg/mL	–	–	–	–	4.45 µg/mL	1.25 µg/mL	–	4.46 µg/mL	2.65 µg/mL	–	–	–	–	2.07 µg/mL (≈ 2.55 µM)	2.41 µg/mL (≈ 2.96 µM)	0.0976 µg/mL (≈ 0.12 µM)	2.43 µg/mL (≈ 2.99 µM)	0.78 µg/mL (≈ 0.96 µM)
CC1(C)OCC(CO)(CO)CO1	–	> 100 µM	> 100 µM	> 100 µM	> 100 µM	> 100 µM	> 100 µM	> 100 µM	> 100 µM	> 100 µM	> 100 µM	> 100 µM	> 100 µM	> 100 µM	–	–	–	–	–
